Patent US7795290B2 (Genentech, Inc., priority 2004, dated 2010)

Target: T1, AKT1 (Homo sapiens, UniProt P31749)
T1 construct: purchased Upstate 14-276
Test: HTS ATP-utilizing enzyme assay, off-chip mobility-shift (Caliper HTS 250)
Type: biochemical
Details: kinase named = inhibitory activity/selectivity; test compound 10 μM; active = greater than three-sigma from mean
Outline: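 AKT1 activity was measured by off-chip mobility shift (Caliper HTS 250) as the ratio of peptide substrate to phosphorylated product. Test compound was at 10 μM, with 2.5 h incubation at 20–22° C. EDTA wells served as 100% control and DMSO wells as 0%. Hits were called at three-sigma limits.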

T1 sequence (P31749 whole entry): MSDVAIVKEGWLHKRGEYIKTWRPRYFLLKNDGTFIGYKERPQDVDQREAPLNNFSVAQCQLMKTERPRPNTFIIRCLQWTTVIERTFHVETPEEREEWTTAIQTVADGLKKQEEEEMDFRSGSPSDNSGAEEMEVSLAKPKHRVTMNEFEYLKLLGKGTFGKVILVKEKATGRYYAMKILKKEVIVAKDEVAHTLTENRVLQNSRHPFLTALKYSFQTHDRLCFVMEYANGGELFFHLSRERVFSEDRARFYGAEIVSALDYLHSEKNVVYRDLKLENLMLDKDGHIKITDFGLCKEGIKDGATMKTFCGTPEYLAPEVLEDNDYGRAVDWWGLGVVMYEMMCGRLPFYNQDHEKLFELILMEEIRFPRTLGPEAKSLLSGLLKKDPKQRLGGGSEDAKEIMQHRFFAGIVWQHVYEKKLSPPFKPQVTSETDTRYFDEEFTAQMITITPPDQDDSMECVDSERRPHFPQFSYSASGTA

Compound | Activity
COc1ccc(-c2csc(N(CCCN3CCOCC3)C(=O)c3nccn3C)n2)cc1 [N-(4-(4-methoxyphenyl)thiazol-2-yl)-1-methyl-N-(3-morpholinopropyl)-1H-imidazole-2-carboxamide] | AKT1
COc1ccc(-c2csc(N(CCCN3CCOCC3)C(=O)c3cccn3C)n2)cc1 [N-(4-(4-methoxyphenyl)thiazol-2-yl)-1-methyl-N-(3-morpholinopropyl)-1H-pyrrole-2-carboxamide] | AKT1
COc1ccc(-c2csc(N(CCCN3CCOCC3)C(=O)c3cccc(C)c3)n2)cc1 [N-(4-(4-methoxyphenyl)thiazol-2-yl)-3-methyl-N-(3-morpholinopropyl)benzamide] | AKT1
COc1ccc(-c2csc(N(CCCN3CCOCC3)C(=O)c3occc3C)n2)cc1 [N-(4-(4-methoxyphenyl)thiazol-2-yl)-3-methyl-N-(3-morpholinopropyl)furan-2-carboxamide] | AKT1
COc1ccc(-c2csc(N(CCCN3CCOCC3)C(=O)c3sccc3C)n2)cc1 [N-(4-(4-methoxyphenyl)thiazol-2-yl)-3-methyl-N-(3-morpholinopropyl)thiophene-2-carboxamide] | AKT1
COc1ccc(-c2csc(N(CCCN3CCCCC3)C(=O)c3cccs3)n2)cc1 [N-(4-(4-methoxyphenyl)thiazol-2-yl)-N-(3-(piperidin-1-yl)propyl)thiophene-2-carboxamide] | AKT1
COc1ccc(-c2csc(N(CCCN3CCCC3)C(=O)c3ccccc3)n2)cc1 [N-(4-(4-methoxyphenyl)thiazol-2-yl)-N-(3-(pyrrolidin-1-yl)propyl)benzamide] | AKT1
COc1ccc(-c2csc(N(CCCN3CCCC3)C(=O)c3ccco3)n2)cc1 [N-(4-(4-methoxyphenyl)thiazol-2-yl)-N-(3-(pyrrolidin-1-yl)propyl)furan-2-carboxamide] | AKT1
COc1ccc(-c2csc(N(CCCN3CCCC3)C(=O)c3cccs3)n2)cc1 [N-(4-(4-methoxyphenyl)thiazol-2-yl)-N-(3-(pyrrolidin-1-yl)propyl)thiophene-2-carboxamide] | AKT1
COc1ccc(-c2csc(N(CCCN3CCOCC3)C(=O)c3ccccc3)n2)cc1 [N-(4-(4-methoxyphenyl)thiazol-2-yl)-N-(3-morpholinopropyl)benzamide] | AKT1
COc1ccc(-c2csc(N(CCCN3CCOCC3)C(=O)C3CCCCC3)n2)cc1 [N-(4-(4-methoxyphenyl)thiazol-2-yl)-N-(3-morpholinopropyl)cyclohexanecarboxamide] | AKT1
COc1ccc(-c2csc(N(CCCN3CCOCC3)C(=O)C3=CCCC3)n2)cc1 [N-(4-(4-methoxyphenyl)thiazol-2-yl)-N-(3-morpholinopropyl)cyclopent-1-enecarboxamide] | AKT1
COc1ccc(-c2csc(N(CCCN3CCOCC3)C(=O)c3cccs3)n2)cc1 [N-(4-(4-methoxyphenyl)thiazol-2-yl)-N-(3-morpholinopropyl)thiophene-2-carboxamide] | AKT1
O=C(c1cccs1)N(CCCN1CCOCC1)c1nc(-c2ccc(N3CCOCC3)cc2)cs1 [N-(4-(4-morpholinophenyl)thiazol-2-yl)-N-(3-morpholinopropyl)thiophene-2-carboxamide] | AKT1
O=C(c1cccs1)N(CCCN1CCOCC1)c1nc(-c2ccc(Cl)s2)cs1 [N-(4-(5-chlorothiophen-2-yl)thiazol-2-yl)-N-(3-morpholinopropyl)thiophene-2-carboxamide] | AKT1
COc1ccc2oc(-c3csc(N(CCCN4CCOCC4)C(=O)c4cccs4)n3)cc2c1 [N-(4-(5-methoxybenzofuran-2-yl)thiazol-2-yl)-N-(3-morpholinopropyl)thiophene-2-carboxamide] | AKT1
Cc1c(-c2csc(N(CCCN3CCOCC3)C(=O)c3cccs3)n2)cnn1-c1ccccc1 [N-(4-(5-methyl-1-phenyl-1H-pyrazol-4-yl)thiazol-2-yl)-N-(3-morpholinopropyl)thiophene-2-carboxamide] | AKT1

The remaining lines, values ahead:

Activity | Compound
AKT1 | Cc1ccc(-c2csc(N(CCCN3CCOCC3)C(=O)c3cccs3)n2)s1 [N-(4-(5-methylthiophen-2-yl)thiazol-2-yl)-N-(3-morpholinopropyl)thiophene-2-carboxamide]
AKT1 | COc1ccc(-c2csc(N(CCCN3CCOCC3)C(=O)c3cccs3)n2)cn1 [N-(4-(6-methoxypyridin-3-yl)thiazol-2-yl)-N-(3-morpholinopropyl)thiophene-2-carboxamide]
AKT1 | COc1cccc2cc(-c3csc(N(CCCN4CCOCC4)C(=O)c4cccs4)n3)oc12 [N-(4-(7-methoxybenzofuran-2-yl)thiazol-2-yl)-N-(3-morpholinopropyl)thiophene-2-carboxamide]
AKT1 | O=C(c1cccs1)N(CCCN1CCOCC1)c1nc(-c2csc3ccccc23)cs1 [N-(4-(benzo[b]thiophen-3-yl)thiazol-2-yl)-N-(3-morpholinopropyl)thiophene-2-carboxamide]
AKT1 | O=C(c1cccs1)N(CCCN1CCOCC1)c1nc(-c2ccc3c(c2)OCO3)cs1 [N-(4-(benzo[d][1,3]dioxol-5-yl)thiazol-2-yl)-N-(3-morpholinopropyl)thiophene-2-carboxamide]
AKT1 | O=C(c1cccs1)N(CCCN1CCOCC1)c1nc(-c2nc3ccccc3s2)cs1 [N-(4-(benzo[d]thiazol-2-yl)thiazol-2-yl)-N-(3-morpholinopropyl)thiophene-2-carboxamide]
AKT1 | Cn1cccc1C(=O)N(CCCN1CCCC1=O)c1nc(-c2cc3ccccc3o2)cs1 [N-(4-(benzofuran-2-yl)thiazol-2-yl)-1-methyl-N-(3-(2-oxopyrrolidin-1-yl)propyl)-1H-pyrrole-2-carboxamide]
AKT1 | CC(CO)NC(=O)CCN(C(=O)c1cccs1)c1nc(-c2cc3ccccc3o2)cs1 (stereo not drawn) [N-(4-(benzofuran-2-yl)thiazol-2-yl)-N-(3-(1-hydroxypropan-2-ylamino)-3-oxopropyl)thiophene-2-carboxamide]
AKT1 | O=C(CC1NC(=O)NC1=O)NCCCN(C(=O)c1cccs1)c1nc(-c2cc3ccccc3o2)cs1 (stereo not drawn) [N-(4-(benzofuran-2-yl)thiazol-2-yl)-N-(3-(2-(2,5-dioxoimidazolidin-4-yl)acetamido)propyl)thiophene-2-carboxamide]
AKT1 | O=C(c1cccs1)N(CCCN1CCCCC1CCO)c1nc(-c2cc3ccccc3o2)cs1 (stereo not drawn) [N-(4-(benzofuran-2-yl)thiazol-2-yl)-N-(3-(2-(2-hydroxyethyl)piperidin-1-yl)propyl)thiophene-2-carboxamide]
AKT1 | CN(C)CCNC(=O)CCN(C(=O)c1cccs1)c1nc(-c2cc3ccccc3o2)cs1 [N-(4-(benzofuran-2-yl)thiazol-2-yl)-N-(3-(2-(dimethylamino)ethylamino)-3-oxopropyl)thiophene-2-carboxamide]
AKT1 | O=C(c1cccs1)N(CCCN1CCCCC1CO)c1nc(-c2cc3ccccc3o2)cs1 (stereo not drawn) [N-(4-(benzofuran-2-yl)thiazol-2-yl)-N-(3-(2-(hydroxymethyl)piperidin-1-yl)propyl)thiophene-2-carboxamide]
AKT1 | O=C(c1cccs1)N(CCC(=O)N1CCCC1CO)c1nc(-c2cc3ccccc3o2)cs1 (stereo not drawn) [N-(4-(benzofuran-2-yl)thiazol-2-yl)-N-(3-(2-(hydroxymethyl)pyrrolidin-1-yl)-3-oxopropyl)thiophene-2-carboxamide]
AKT1 | O=C(c1cccs1)N(CCCN1CCCC1CO)c1nc(-c2cc3ccccc3o2)cs1 (stereo not drawn) [N-(4-(benzofuran-2-yl)thiazol-2-yl)-N-(3-(2-(hydroxymethyl)pyrrolidin-1-yl)propyl)thiophene-2-carboxamide]
AKT1 | O=C(c1cccs1)N(CCCN1CCCCC1CN1CCCC1)c1nc(-c2cc3ccccc3o2)cs1 (stereo not drawn) [N-(4-(benzofuran-2-yl)thiazol-2-yl)-N-(3-(2-(pyrrolidin-1-ylmethyl)piperidin-1-yl)propyl)thiophene-2-carboxamide]
AKT1 | O=C(CCN(C(=O)c1cccs1)c1nc(-c2cc3ccccc3o2)cs1)NCCO [N-(4-(benzofuran-2-yl)thiazol-2-yl)-N-(3-(2-hydroxyethylamino)-3-oxopropyl)thiophene-2-carboxamide]
AKT1 | COCCNC(=O)CCN(C(=O)c1cccs1)c1nc(-c2cc3ccccc3o2)cs1 [N-(4-(benzofuran-2-yl)thiazol-2-yl)-N-(3-(2-methoxyethylamino)-3-oxopropyl)thiophene-2-carboxamide]
AKT1 | O=C(CN1CCOCC1)NCCCN(C(=O)c1cccs1)c1nc(-c2cc3ccccc3o2)cs1 [N-(4-(benzofuran-2-yl)thiazol-2-yl)-N-(3-(2-morpholinoacetamido)propyl)thiophene-2-carboxamide]
AKT1 | O=C1CCCN1CCCN(C(=O)c1ccco1)c1nc(-c2cc3ccccc3o2)cs1 [N-(4-(benzofuran-2-yl)thiazol-2-yl)-N-(3-(2-oxopyrrolidin-1-yl)propyl)furan-2-carboxamide]
AKT1 | O=C1CCCN1CCCN(C(=O)c1cccs1)c1nc(-c2cc3ccccc3o2)cs1 [N-(4-(benzofuran-2-yl)thiazol-2-yl)-N-(3-(2-oxopyrrolidin-1-yl)propyl)thiophene-2-carboxamide]
AKT1 | CCN(C(C)=O)C1CCN(CCCN(C(=O)c2cccs2)c2nc(-c3cc4ccccc4o3)cs2)C1 (stereo not drawn) [N-(4-(benzofuran-2-yl)thiazol-2-yl)-N-(3-(3-(N-ethylacetamido)pyrrolidin-1-yl)propyl)thiophene-2-carboxamide]
AKT1 | CC(=O)N(C)C1CCN(CCCN(C(=O)c2cccs2)c2nc(-c3cc4ccccc4o3)cs2)C1 (stereo not drawn) [N-(4-(benzofuran-2-yl)thiazol-2-yl)-N-(3-(3-(N-methylacetamido)pyrrolidin-1-yl)propyl)thiophene-2-carboxamide]
